Reference: PMC5784979, “Direct comparison of the four aldehyde oxidase enzymes present in mouse gives insight into their substrate specificities” (PLoS ONE, 2018)

Experiments:
[1] = target: T1, mAOX3 (Mus musculus, UniProt G3X982); assay: DCPIP reduction at […] nm, steady-state kinetics; type: biochemical; settings: 100 μM DCPIP as electron acceptor, 50 mM Tris-HCl, 1 mM EDTA, pH 8.0, 37°C, corrected to 100% Mo saturation
T1 construct: gene Aox3; recombinant from E. coli TP1000 (plasmid pMMA1), Ni-NTA and Superdex 200 purified, chemically sulfurated, dimer (300 kDa)
T1 sequence (G3X982 1-1335): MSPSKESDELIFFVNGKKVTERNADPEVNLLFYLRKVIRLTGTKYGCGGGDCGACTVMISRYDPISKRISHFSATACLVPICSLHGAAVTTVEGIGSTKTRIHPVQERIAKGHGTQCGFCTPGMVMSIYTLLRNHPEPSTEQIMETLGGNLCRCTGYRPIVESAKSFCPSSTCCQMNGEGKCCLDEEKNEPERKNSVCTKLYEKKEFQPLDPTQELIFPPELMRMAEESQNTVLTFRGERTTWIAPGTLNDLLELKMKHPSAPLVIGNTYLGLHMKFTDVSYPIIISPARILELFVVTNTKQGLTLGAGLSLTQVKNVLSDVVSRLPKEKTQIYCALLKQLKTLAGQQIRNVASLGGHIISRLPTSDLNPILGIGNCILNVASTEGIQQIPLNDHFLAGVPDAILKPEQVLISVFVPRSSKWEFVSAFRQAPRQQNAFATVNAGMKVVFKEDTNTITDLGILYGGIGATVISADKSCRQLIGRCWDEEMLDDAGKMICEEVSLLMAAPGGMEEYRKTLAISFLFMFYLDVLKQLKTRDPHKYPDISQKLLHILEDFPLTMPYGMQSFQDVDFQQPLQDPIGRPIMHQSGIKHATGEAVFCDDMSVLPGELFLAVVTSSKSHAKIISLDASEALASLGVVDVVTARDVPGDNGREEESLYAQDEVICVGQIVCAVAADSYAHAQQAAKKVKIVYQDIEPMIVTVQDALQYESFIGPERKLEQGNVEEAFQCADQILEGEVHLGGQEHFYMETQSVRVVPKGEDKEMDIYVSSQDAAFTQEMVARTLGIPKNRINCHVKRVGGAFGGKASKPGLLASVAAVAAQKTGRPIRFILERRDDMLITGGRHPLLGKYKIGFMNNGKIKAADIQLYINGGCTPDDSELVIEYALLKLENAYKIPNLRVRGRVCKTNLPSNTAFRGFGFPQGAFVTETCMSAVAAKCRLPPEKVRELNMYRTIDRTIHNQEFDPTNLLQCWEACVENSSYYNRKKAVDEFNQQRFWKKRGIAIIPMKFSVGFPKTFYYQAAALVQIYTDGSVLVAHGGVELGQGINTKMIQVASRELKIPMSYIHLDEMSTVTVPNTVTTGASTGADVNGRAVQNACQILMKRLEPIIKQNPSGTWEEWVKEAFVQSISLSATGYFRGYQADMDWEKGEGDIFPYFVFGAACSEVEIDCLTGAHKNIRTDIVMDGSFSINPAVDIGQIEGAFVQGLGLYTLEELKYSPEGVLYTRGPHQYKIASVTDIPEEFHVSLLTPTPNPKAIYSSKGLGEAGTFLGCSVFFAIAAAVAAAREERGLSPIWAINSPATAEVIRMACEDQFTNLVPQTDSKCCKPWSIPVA

[2] = target: T2, mAOX4 (Mus musculus, UniProt Q3TYQ9); assay: DCPIP reduction at […] nm, steady-state kinetics; type: biochemical; settings: 100 μM DCPIP as electron acceptor, 50 mM Tris-HCl, 1 mM EDTA, pH 8.0, 37°C, corrected to 100% Mo saturation
T2 construct: gene Aox4; recombinant from E. coli TP1000 (plasmid pMAOX4), Ni-NTA and Superdex 200 purified, chemically sulfurated, dimer (300 kDa)
T2 sequence (Q3TYQ9 1-1336): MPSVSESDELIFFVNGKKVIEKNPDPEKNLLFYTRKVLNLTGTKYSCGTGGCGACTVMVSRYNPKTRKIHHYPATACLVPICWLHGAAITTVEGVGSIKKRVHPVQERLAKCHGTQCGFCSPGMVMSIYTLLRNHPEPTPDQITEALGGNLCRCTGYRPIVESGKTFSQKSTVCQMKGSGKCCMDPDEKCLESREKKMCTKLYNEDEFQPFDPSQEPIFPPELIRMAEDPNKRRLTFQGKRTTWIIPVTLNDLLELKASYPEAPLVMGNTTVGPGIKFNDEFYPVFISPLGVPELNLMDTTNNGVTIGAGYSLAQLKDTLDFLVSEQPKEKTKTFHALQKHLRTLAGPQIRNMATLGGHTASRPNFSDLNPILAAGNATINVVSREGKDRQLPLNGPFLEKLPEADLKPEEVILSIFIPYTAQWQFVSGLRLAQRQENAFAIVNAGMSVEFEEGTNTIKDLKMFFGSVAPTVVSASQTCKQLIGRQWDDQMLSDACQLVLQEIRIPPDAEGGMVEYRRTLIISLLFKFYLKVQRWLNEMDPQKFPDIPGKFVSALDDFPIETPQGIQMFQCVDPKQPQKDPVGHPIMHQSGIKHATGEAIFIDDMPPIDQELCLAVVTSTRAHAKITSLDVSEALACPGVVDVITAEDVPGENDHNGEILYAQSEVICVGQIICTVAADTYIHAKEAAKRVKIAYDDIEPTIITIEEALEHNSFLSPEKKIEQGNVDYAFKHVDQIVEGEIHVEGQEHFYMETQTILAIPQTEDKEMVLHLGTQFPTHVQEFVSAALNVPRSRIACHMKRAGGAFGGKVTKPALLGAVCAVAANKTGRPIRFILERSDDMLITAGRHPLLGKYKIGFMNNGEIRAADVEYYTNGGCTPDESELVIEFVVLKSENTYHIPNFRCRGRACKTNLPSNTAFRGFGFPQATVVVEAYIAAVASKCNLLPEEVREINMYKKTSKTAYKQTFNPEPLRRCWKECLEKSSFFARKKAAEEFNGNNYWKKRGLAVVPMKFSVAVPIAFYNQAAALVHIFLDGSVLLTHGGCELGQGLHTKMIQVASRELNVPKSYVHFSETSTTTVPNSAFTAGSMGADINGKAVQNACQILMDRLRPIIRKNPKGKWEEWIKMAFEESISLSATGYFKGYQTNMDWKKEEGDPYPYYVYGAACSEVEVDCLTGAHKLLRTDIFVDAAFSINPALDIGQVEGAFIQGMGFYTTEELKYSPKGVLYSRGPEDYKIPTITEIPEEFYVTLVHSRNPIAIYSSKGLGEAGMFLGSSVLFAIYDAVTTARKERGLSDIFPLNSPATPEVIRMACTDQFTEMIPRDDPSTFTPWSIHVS

[3] = limit given jointly for mAOX3, mAOX4 and mAOX2

| Structure (SMILES) | Km ([1]; range printed jointly for mAOX3, mAOX4 and mAOX2) [mM] | Km [2] [mM] | Km [1, 3] [mM] | Km [2, 3] [mM] |
| --- | --- | --- | --- | --- |
| CC=O [acetaldehyde] | 4.4 to 4.6 | 4.4 to 4.6 |  |  |
| O=Cc1ccc(O)cc1 [4-hydroxybenzaldehyde] |  |  | < 0.002 | < 0.002 |
